We go through one sequence from PMC8330795, “In silico identification and experimental validation of cellular uptake by a new cell penetrating peptide P1 derived from MARCKS” (Drug Delivery, 2021).

The subject of one data set is BV2 cells. The data set is described as follows: Cellular uptake of FITC-labeled peptide, fluorescence microscopy and lysate fluorescence. It is filed as cell-based, mouse. Conditions: FITC-labeled peptide 5 μM. The method, then:
(§1) Cells were suspended in regular culture media and seeded on coverslip in a 24-well plate at a concentration of 1.6 × 10^4 cells/well. Rinsing with PBS twice after 24 h of incubation for cell attachment, FITC-labeled peptides at indicated concentrations were added with 0.5 ml serum-free media/well and incubated for 1 hour at 37 °C. After incubation, the cells were washed with PBS at least three times. 4′,6-diamidino-2-phenylindole (DAPI) was added to each well and incubated for 5 min after fixation with 4% paraformaldehyde (PFA) in PBS. The cells were washed with PBS, mounted on the slide, and observed by fluorescence microscopy (Nikon, Tokyo, Japan).
(§2) To analyze the internalization efficiency of CPP, the fluorescence of cell lysates and supernatants was measured using TECAN Safire multi-well reader with excitation and emission wavelengths set to 485 nm and 535 nm, following the protocol published (Wang et al., [2010]; Ma et al., [2015]; Wang et al., [2016]; [2016]; Zhou et al., [2017]; Shao et al., [2016]; Zhang et al., [2019]; Geng et al., [2020]). After the cell incubation with peptide and washing step described above, cells were lysed with 300 µl lysis buffer (0.1 M NaOH) for 10 minutes and centrifuged at 800 rpm for 5 minutes. Fluorescence in the 50 µl supernatant transferred to a 96-well plate was monitored by the plate-reader spectrophotometer (Tecan, Mannedorf, Switzerland). […]

For data set [1], the system named is HSC-T6 cells.
Procedure: Cytotoxicity was measured using MTT assay. Grown cells were inoculated for 24 h at a density of 10000 cells/well in 96-well plates. After washing with PBS, the indicated concentrations of peptides were added, following by further incubation for 24 h or 48 h. After at least two-times washing, 5 mg/ml MTT dissolved in PBS with serum-free media was added into plates for another 4 h incubation. Dimethyl sulfoxide (DMSO) was added into plates and incubated at 37 °C for 15–30 minutes to dissolve the formazan crystals. The absorbance of aliquot from each well was measured at 490 nm using a Multiskan Spectrum (Thermo Fisher Scientific, Waltham, MA, USA) microplate reader. Experiments were repeated three times.
The test system of data set [2] is HSC-T6 cells. Kind of data set: Cellular uptake of FITC-labeled peptide, fluorescence microscopy and lysate fluorescence. The format is cell-based, rat. The method, then: Cells were suspended in regular culture media and seeded on coverslip in a 24-well plate at a concentration of 1.6 × 10^4 cells/well. Rinsing with PBS twice after 24 h of incubation for cell attachment, FITC-labeled peptides at indicated concentrations were added with 0.5 ml serum-free media/well and incubated for 1 hour at 37 °C. After incubation, the cells were washed with PBS at least three times. 4′,6-diamidino-2-phenylindole (DAPI) was added to each well and incubated for 5 min after fixation with 4% paraformaldehyde (PFA) in PBS. The cells were washed with PBS, mounted on the slide, and observed by fluorescence microscopy (Nikon, Tokyo, Japan). To analyze the internalization efficiency of CPP, the fluorescence of cell lysates and supernatants was measured using TECAN Safire multi-well reader with excitation and emission wavelengths set to 485 nm and 535 nm, following the protocol published (Wang et al., [2010]; Ma et al., [2015]; Wang et al., [2016]; [2016]; Zhou et al., [2017]; Shao et al., [2016]; Zhang et al., [2019]; Geng et al., [2020]). After the cell incubation with peptide and washing step described above, cells were lysed with 300 µl lysis buffer (0.1 M NaOH) for 10 minutes and centrifuged at 800 rpm for 5 minutes. Fluorescence in the 50 µl supernatant transferred to a 96-well plate was monitored by the plate-reader spectrophotometer (Tecan, Mannedorf, Switzerland). The amount of FITC-labeled peptides internalized were normalized by protein concentration, and the experiments indicated were repeated at least three times.

A further data set has as its system Mouse erythrocytes. The data set is described as follows: Hemolysis assay. The format is cell-based. The settings on record: mouse erythrocytes in PBS, 37 °C, 2 h, absorbance 450 nm; 0.1% Triton X-100 positive control. Here is the method: Mouse erythrocytes free of plasma components were separated by centrifugation at 1000 rpm for 5 minutes and washed three times with PBS. The washed mouse erythrocytes were resuspended in PBS and treated with indicated concentrations of peptides at 37 °C for 2 h. Hemolysis was examined by measuring the absorbance of supernatant at the wavelength of 450 nm, and 0.1% Triton X-100 was used as a positive control.

In a further data set the test system is MCF7. The data set is described as follows: Cellular uptake of FITC-labeled peptide, fluorescence microscopy and lysate fluorescence. It is filed as cell-based, human. Conditions: FITC-labeled peptide 5 μM; MCF7 compared with other cell lines. Here is the method:
as §1, §2

In the next data set the test system is BV2. The data set is described as follows: Peptide-mediated transfection of pdsRed plasmid, RFP expression. It is filed as cell-based, mouse. Conditions: BV2, 80:1 group. Here is the method: HSC-T6, BV2 and MCF7 cells (4 × 10^4 cells/well) were seeded onto 24-well plates 24 h before the experiment. Cells were incubated with CPP-P1/pDNA complexes at indicated N/P ratios for 4 hrs in serum-free media, and then were incubated for 24 h or 48 h after adding media with 10% serum. Live cell imaging under fluorescence microscope was carried out to estimate peptide-based transfection efficiency. Cells transfected with TurboFectin (OriGene, Beijing, China) were used as positive transfection reagent.

Regarding KKKKKRFSFKKSFKLSGFSFKKNKK [P1], the “penetration into hard-to-translocate cells” value in the data set on BV2 cells is given as “could enter into hard-to-translocate BV2 cells in significant amount”. Further, the “cytotoxicity, MTT assay” value in the data set with HSC-T6 cells [1] is given as “did not find significant cytotoxicity”. For the same sequence, in the data set with HSC-T6 cells [2] (100 μM CQ, fluorescent quantification, Figure S6, cell line not stated at place), the “penetration efficiency with chloroquine (CQ)” value was “no obvious effect”. Besides, the “fluorescence of peptide versus incubation time” value with HSC-T6 cells [2] (FITC-labeled peptide 5 μM, after 1 hour treatment, longer incubation times, images and fluorescence quantification) is reported as “significantly decreased as incubation time increased”. Besides, the “penetration property versus peptide concentration” value in the data set with HSC-T6 cells [2] (FITC-labeled peptide, 1 hour, 37 °C, serum-free media, fluorescence normalized with protein concentration) is “concentration dependent”. Besides, the “penetration efficiency with sucrose” value in the data set with HSC-T6 cells [2] (peptide 5 μM with 0.3 M and 0.6 M sucrose, cell line not stated at place) is recorded as “inhibited”. The “penetration efficiency with penetration enhancer DMSO” value with HSC-T6 cells [2] (peptide 5 μM with 5% DMSO (2.5% and 5% tested), cell line not stated at place) is on record as “enhanced”. Also, in the data set on HSC-T6 cells [2] (peptide 5 μM, 25 °C and 4 °C compared to 37 °C), the “penetration efficiency at low temperature” value is reported as “significantly inhibited”. The “uptake inhibited by endocytosis inhibitors” value in the data set on HSC-T6 cells [2] (peptide 5 μM, same inhibitor list, inhibitor giving this value not specified) is listed as “about 20%”. The “penetration efficiency compared with other published CPPs” value in the data set on HSC-T6 cells [2] (peptides 5 μM, FITC-labeled, versus MT23 and TAT, cell line not stated at place) is “higher penetration efficiency than MT23 and TAT”. Moreover, in the data set with Mouse erythrocytes, the “hemolysis of red blood cells” value is “minimally perturbed”. Besides, the “penetration efficiency in different cell lines” value in the data set with MCF7 is reported as “higher penetration efficiency in MCF7”. In addition, the “RFP expression at N/P 80:1” value in the data set with BV2 is recorded as “could not find RFP positive cells”.
